Results taken from US9249163B2, “PDE10a inhibitors for the treatment of type II diabetes” (Janssen Pharmaceutica, NV, priority 2013, dated 2016).
Structures can show the parent of a compound that is named as a salt.

Columns and labels:
[1] = target: Rat recombinant PDE10a (rPDE10a) (Rattus norvegicus (Rat), UniProt Q9QYJ6); experiment: In vitro assay PDE10a (rat recombinant PDE10a, SPA); assay type: biochemical; details: 60 nM cAMP, 60 min at rt, read-out: rPDE10a2 IC50
Method: Rat recombinant PDE10a (rPDE10a) was expressed in Sf9 cells using a recombinant rPDE10a baculovirus construct. Cells were harvested after 48 h of infection and the rPDE10a protein was purified by metal chelate chromatography on Ni-sepharose 6FF. Tested compounds were dissolved and diluted in 100% DMSO to a concentration 100 fold of the final concentration in the assay. Compound dilutions (0.4 μL) were added in 384 well plates to 20 μL of incubation buffer (50 mM Tris pH 7.8, 8.3 mM MgCl2, 1.7 mM EGTA). 10 μL of rPDE10a enzyme in incubation buffer was added and the reaction was started by addition of 10 μL substrate to a final concentration of 60 nM cAMP and 0.008 μCi ^3H-cAMP. The reaction was incubated for 60 min at rt. After incubation, the reaction was stopped with 20 μL of 17.8 mg/mL PDE SPA beads. After sedimentation of the beads during 30 min the radioactivity was measured in a Perkin Elmer Topcount scintillation counter and results were expressed as cpm. For blank values the enzyme was omitted from the reaction and replaced by incubation buffer. Control values were obtained by addition of a final concentration of 1% DMSO instead of compound.

[2] = target: Human recombinant PDE10A2 (Homo sapiens (Human), UniProt Q9Y233); experiment: In vitro hPDE10a (human recombinant PDE10A2, scintillation proximity assay); assay type: biochemical; details: human recombinant PDE10A2, 60 nM cAMP, 60 min at room temperature; read-out: hPDE10a2 IC50
Method: Human recombinant PDE10A2 was expressed in Sf9 cells, using a recombinant baculovirus construct containing the full length sequence containing a 6×His sequence following the start Met to allow metal affinity purification of the recombinant protein. Cells were harvested and the phosphodiesterase protein was purified by metal chelate chromatography on Ni-sepharose 6FF.
The affinity of the compounds of Formula (I) for phophodiesterases (PDE) was measured by a scintillation proximity assay (SPA). PDE Yttrium Silicate SPA beads allow PDE activity to be measured by direct binding of the primary phosphate groups of non-cyclic AMP or GMP to the beads via a complex iron chelation mechanism. The amount of bound tritiated product ([^3H]-AMP) is measured by liquid scintillation counting.
The compounds were dissolved and diluted in 100% DMSO in polystyrene plates to a concentration of 100-fold the final concentration in the assay. Human PDE10A enzyme solution (10 μL) was added to 20 μL, of incubation buffer (50 mM Tris pH 7.8, 8.3 mM MgCl2, 1.7 mM EGTA), 10 μL, substrate solution consisting of a mixture of non-tritiated and tritiated substrate (60 nM cAMP, 0.008 μCi ^3H-cAMP), and 0.4 μL, compound in 100% DMSO in a 384-well plate, and incubated for 60 min at room temperature. After incubation, the reaction was stopped with 20 μL, of stop solution, consisting of PDE SPA beads (17.8 mg beads/mL in 18 mM zinc sulphate). After sedimentation of the beads for 30 min, the radioactivity was measured in a Perkin Elmer Topcount scintillation counter and results were expressed as cpm. To measure the low control, no enzyme was added to the reaction mixture.
Data were calculated as the percentage of inhibition of total activity measured in the absence of test compound (% control).

Chain of Human recombinant PDE10A2 (Q9Y233 267-1055): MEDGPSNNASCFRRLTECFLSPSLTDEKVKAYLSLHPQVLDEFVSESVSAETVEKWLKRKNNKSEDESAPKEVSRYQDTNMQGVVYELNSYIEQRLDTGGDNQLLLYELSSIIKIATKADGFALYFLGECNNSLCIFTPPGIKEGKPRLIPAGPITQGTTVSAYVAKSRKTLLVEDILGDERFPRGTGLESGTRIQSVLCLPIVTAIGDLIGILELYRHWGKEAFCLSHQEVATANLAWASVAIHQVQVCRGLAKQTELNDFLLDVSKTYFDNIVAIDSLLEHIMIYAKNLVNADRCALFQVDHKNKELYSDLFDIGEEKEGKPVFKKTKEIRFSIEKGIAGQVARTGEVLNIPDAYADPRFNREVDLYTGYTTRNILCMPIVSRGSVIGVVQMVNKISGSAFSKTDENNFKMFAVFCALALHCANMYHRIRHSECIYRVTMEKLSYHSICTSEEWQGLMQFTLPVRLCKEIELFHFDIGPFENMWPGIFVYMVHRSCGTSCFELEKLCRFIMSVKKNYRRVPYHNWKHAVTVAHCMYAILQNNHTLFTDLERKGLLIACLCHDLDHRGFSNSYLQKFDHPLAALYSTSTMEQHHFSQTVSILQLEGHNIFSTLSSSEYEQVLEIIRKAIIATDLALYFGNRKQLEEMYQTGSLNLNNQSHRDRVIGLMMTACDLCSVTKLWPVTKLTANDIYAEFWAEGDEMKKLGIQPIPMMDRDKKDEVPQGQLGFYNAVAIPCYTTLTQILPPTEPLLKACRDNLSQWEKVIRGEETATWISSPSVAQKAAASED
Chain of Rat recombinant PDE10a (rPDE10a) (Q9QYJ6 whole entry): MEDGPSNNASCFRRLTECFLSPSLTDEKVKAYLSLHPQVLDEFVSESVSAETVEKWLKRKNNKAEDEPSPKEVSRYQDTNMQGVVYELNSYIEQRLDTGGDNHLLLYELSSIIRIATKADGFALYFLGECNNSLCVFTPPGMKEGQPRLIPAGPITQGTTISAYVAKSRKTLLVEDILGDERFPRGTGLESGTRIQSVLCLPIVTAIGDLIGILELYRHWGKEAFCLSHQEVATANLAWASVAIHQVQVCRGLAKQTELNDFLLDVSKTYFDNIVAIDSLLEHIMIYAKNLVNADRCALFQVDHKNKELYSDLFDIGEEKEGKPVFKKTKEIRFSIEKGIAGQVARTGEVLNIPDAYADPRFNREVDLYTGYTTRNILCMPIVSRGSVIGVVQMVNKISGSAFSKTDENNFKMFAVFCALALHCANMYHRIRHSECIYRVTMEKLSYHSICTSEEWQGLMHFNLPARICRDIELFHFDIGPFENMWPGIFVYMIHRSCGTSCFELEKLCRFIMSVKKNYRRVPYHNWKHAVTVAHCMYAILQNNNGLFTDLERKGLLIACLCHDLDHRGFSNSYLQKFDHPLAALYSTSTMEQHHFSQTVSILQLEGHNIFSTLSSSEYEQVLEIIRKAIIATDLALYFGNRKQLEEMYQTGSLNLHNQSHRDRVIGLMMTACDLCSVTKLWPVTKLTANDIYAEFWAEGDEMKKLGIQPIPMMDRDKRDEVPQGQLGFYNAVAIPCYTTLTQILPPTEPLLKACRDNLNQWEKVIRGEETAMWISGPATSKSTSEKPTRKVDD

Row | IC50 [1] [nM] | IC50 [2] [nM] | Structure (SMILES)
1 | 6 | 12 | O=C(O)CCC(=O)Nc1ccc(-c2cnc(N3CCOCC3)c3nc(/C=C/c4ccc5ccccc5n4)cn23)cc1 [Cpd 32]
2 | 23 | 21 | Cn1nc(-c2ccc(-c3cnc(N4CCOCC4)c4nc(CCc5ccc6ccccc6n5)cn34)cc2)[nH]c1=O [Cpd 33, 1-Methyl-3-[4-[8-(morpholin-4-yl)-2-[2-(quinolin-2-yl)ethyl]imidazo[1,2-a]pyrazin-5-yl]phenyl]-4,5-dihydro-1H-1,2,4-triazol-5-one]
3 | 13 | 5 | CC(C)[C@H](NC(=O)c1ccc(-c2cnc(N3CCOCC3)c3nc(CCc4ccc5ccccc5n4)cn23)cc1)C(=O)O [Cpd 34, (S)-3-Methyl-2-(4-(8-morpholino-2-(2-(quinolin-2-yl)ethyl)imidazo[1,2-a]pyrazin-5-yl)benzamido)butanoic acid trifluoroacetic acid salt]
4 | 12 | 7 | O=C(O)[C@@H]1CCCN1C(=O)c1ccc(-c2cnc(N3CCOCC3)c3nc(CCc4ccc5ccccc5n4)cn23)cc1 [Cpd 35, (S)-1-(4-(8-Morpholino-2-(2-(quinolin-2-yl)ethyl)imidazo[1,2-a]pyrazin-5-yl)benzoyl)pyrrolidine-2-carboxylic acid trifluoroacetic acid salt]
5 | 23 | 17 | c1ccc2nc(CCc3cn4c(-c5ccc(Sc6cnn[nH]6)cc5)cnc(N5CCOCC5)c4n3)ccc2c1 [Cpd 36, 4-(5-(4-((1H-1,2,3-triazol-5-yl)thio)phenyl)-2-(2-(quinolin-2-yl)ethyl)imidazo[1,2-a]pyrazin-8-yl)morpholine]
6 | 7 | 2 | O=C(O)CCNC(=O)c1ccc(-c2cnc(N3CCOCC3)c3nc(CCc4ccc5ccccc5n4)cn23)cc1 [Cpd 38, 3-(4-(8-Morpholino-2-(2-(quinolin-2-yl)ethyl)imidazo[1,2-a]pyrazin-5-yl)benzamido)propanoic acid]
7 | 8 | 5 | O=C(O)CCNC(=O)c1ccc(-c2cnc(N3CCOCC3)c3nc(/C=C/c4ccc5ccccc5n4)cn23)cc1 [Cpd 39, (E)-3-(4-(8-Morpholino-2-(2-(quinolin-2-yl)vinyl)imidazo[1,2-a]pyrazin-5-yl)benzamido)propanoic acid]
8 | 20 | 10 | CS(=O)(=O)NC(=O)Nc1ccc(-c2cnc(N3CCOCC3)c3nc(CCc4ccc5ccccc5n4)cn23)cc1 [Cpd 40, N-((4-(8-Morpholino-2-(2-(quinolin-2-yl)ethyl)imidazo[1,2-a]pyrazin-5-yl)phenyl)carbamoyl)methanesulfonamide]
9 | 21 | 19 | COCOc1c(C)cc(-c2cnc(N3CCOCC3)c3nc(/C=C/c4ccc5ccccc5n4)cn23)cc1C [Cpd 41, (E)-4-(5-(4-(methoxymethoxy)-3,5-dimethylphenyl)-2-(2-(quinolin-2-yl)vinyl)imidazo[1,2-a]pyrazin-8-yl)morpholine]
10 | 2 | 1 | O=C1NS(=O)(=O)c2ccc(-c3cnc(N4CCOCC4)c4nc(/C=C/c5ccc6ccccc6n5)cn34)cc21 [Cpd 42, (E)-5-(8-Morpholino-2-(2-(quinolin-2-yl)vinyl)imidazo[1,2-a]pyrazin-5-yl)benzo[d]isothiazol-3(2H)-one 1,1-dioxide]
11 | 9 | 14 | CC(C)[C@H](NC(=O)c1ccc(-c2cnc(N3CCOCC3)c3nc(/C=C/c4ccc5ccccc5n4)cn23)cc1)C(=O)O [Cpd 44, (S,E)-3-Methyl-2-(4-(8-morpholino-2-(2-(quinolin-2-yl)vinyl)imidazo[1,2-a]pyrazin-5-yl)benzamido)butanoic acid trifluoroacetic acid salt]
12 | 23 | 20 | O=C(O)[C@@H]1CCCN1C(=O)c1ccc(-c2cnc(N3CCOCC3)c3nc(/C=C/c4ccc5ccccc5n4)cn23)cc1 [Cpd 45, (S,E)-1-(4-(8-Morpholino-2-(2-(quinolin-2-yl)vinyl)imidazo[1,2-a]pyrazin-5-yl)benzoyl)pyrrolidine-2-carboxylic acid trifluoroacetic acid salt]
13 | 4 | 7 | O=C(O)CNC(=O)c1ccc(-c2cnc(N3CCOCC3)c3nc(CCc4ccc5ccccc5n4)cn23)cc1 [Cpd 46, 2-(4-(8-Morpholino-2-(2-(quinolin-2-yl)ethyl)imidazo[1,2-a]pyrazin-5-yl)benzamido)acetic acid]
14 | 15 | 34 | Cn1nc(-c2ccc(-c3cnc(N4CCOCC4)c4nc(/C=C/c5ccc6ccccc6n5)cn34)cc2)[nH]c1=O [Cpd 47, (E)-2-Methyl-5-(4-(8-morpholino-2-(2-(quinolin-2-yl)vinyl)imidazo[1,2-a]pyrazin-5-yl)phenyl)-2H-1,2,4-triazol-3(4H)-one]
15 | 37 | 11 | O=C1NC(=O)C(c2ccc(-c3cnc(N4CCOCC4)c4nc(/C=C/c5ccc6ccccc6n5)cn34)cc2)O1 (stereo not shown) [Cpd 48, (E)-5-(4-(8-Morpholino-2-(2-(quinolin-2-yl)vinyl)imidazo[1,2-a]pyrazin-5-yl)phenyl)oxazolidine-2,4-dione]
16 | 98 | 155 | Cc1cc(S(=O)(=O)NC(C)C)ccc1-c1cnc(N2CCOCC2)c2nc(/C=C/c3ccc4ccccc4n3)cn12 [Cpd 49, (E)-N-isopropyl-3-methyl-4-(8-morpholino-2-(2-(quinolin-2-yl)vinyl)imidazo[1,2-a]pyrazin-5-yl)benzenesulfonamide]
17 | 17 | 18 | O=C(O)CNC(=O)c1ccc(-c2cnc(N3CCOCC3)c3nc(/C=C/c4ccc5ccccc5n4)cn23)cc1 [Cpd 50, (E)-2-(4-(8-Morpholino-2-(2-(quinolin-2-yl)vinyl)imidazo[1,2-a]pyrazin-5-yl)benzamido)acetic acid]
18 | 5 | 4 | Oc1ncn(-c2ccc(-c3cnc(N4CCOCC4)c4nc(CCc5ccc6ccccc6n5)cn34)cc2)n1 [Cpd 51, 1-(4-(8-Morpholino-2-(2-(quinolin-2-yl)ethyl)imidazo[1,2-a]pyrazin-5-yl)phenyl)-1H-1,2,4-triazol-3-ol]
19 | 1 | 1 | O=C1NS(=O)(=O)c2cc(-c3cnc(N4CCOCC4)c4nc(CCc5ccc6ccccc6n5)cn34)ccc21 [Cpd 54, 6-(8-Morpholino-2-(2-(quinolin-2-yl)ethyl)imidazo[1,2-a]pyrazin-5-yl)benzo[d]isothiazol-3(2H)-one 1,1-dioxide trifluoroacetic acid salt]
20 | 15 | 14 | O=c1ncn(-c2ccc(-c3cnc(N4CCOCC4)c4nc(/C=C/c5ccc6ccccc6n5)cn34)cc2)[nH]1 [Cpd 56, (E)-1-(4-(8-Morpholino-2-(2-(quinolin-2-yl)vinyl)imidazo[1,2-a]pyrazin-5-yl)phenyl)-1,2-dihydro-1,2,4-triazol-3-one]
21 | 132 | 91 | O=c1[nH]ncn1-c1ccc(-c2cnc(N3CCOCC3)c3nc(/C=C/c4ccc5ccccc5n4)cn23)cc1 [Cpd 58, (E)-4-(4-(8-morpholino-2-(2-(quinolin-2-yl)vinyl)imidazo[1,2-a]pyrazin-5-yl)phenyl)-1H-1,2,4-triazol-5(4H)-one]

Row | Structure (SMILES) | IC50 [1] [nM] | IC50 [2] [nM]
22 | CN1c2cc(-c3cnc(N4CCOCC4)c4nc(/C=C/c5ccc6ccccc6n5)cn34)ccc2NS1(=O)=O [Cpd 43, (E)-1-Methyl-6-(8-morpholino-2-(2-(quinolin-2-yl)vinyl)imidazo[1,2-a]pyrazin-5-yl)-1,3-dihydrobenzo[c][1,2,5]thiadiazole 2,2-dioxide trifluoroacetic acid salt] | 7 | 3
23 | O=C1NC(=O)C(c2ccc(-c3cnc(N4CCOCC4)c4nc(/C=C/c5ccc6ccccc6n5)cn34)cc2)N1 (stereo not shown) [Cpd 57, (E)-5-(4-(8-Morpholino-2-(2-(quinolin-2-yl)vinyl)imidazo[1,2-a]pyrazin-5-yl)phenyl)imidazolidine-2,4-dione 2,2,2-trifluoroacetate] | 48 | 46
